Patent US20240408122A1, “PHARMACEUTICAL COMPOSITION FOR PREVENTION OR TREATMENT OF METABOLIC DISEASE COMPRISING LYSOPHOSPHOLIPID” (SEOUL NATIONAL UNIVERSITY R&DB FOUNDATION, priority 2021, published 2024)

What was measured:
C3H10T1/2 adipocytes [1] = experiment: Quantification of intracellular cAMP level (Direct cAMP ELISA); type: cell-based; settings: 1 μM, 24 hours; FIG. 2A
Method: C3H10T1/2 cells were purchased from the American Type Culture Collection (ATCC), and in vitro adipocyte experiments were performed using these cells, which were cultured in DMEM (Welgene) supplemented with 10% FBS (Gibco) and 1% P/S at 37° C. in a humidified atmosphere of 5% CO2. To prepare fully differentiated C3H10T1/2 adipocytes, confluent C3H10T1/2 cells were exposed to BMP4 (R&D system, 20 ng/ml) for 2 days, and induced in a differentiation medium containing IBMX (isobutylmethylxanthine, Cayman, 0.5 mM), dexamethasone (Cayman, 1 μM), insulin (Sigma, 10 μg/mL), indomethacin (Cayman, 0.125 mM), and triiodothyronine (T3, Cayman, 1 nM) for 3 days, then exposed to a maintenance medium containing insulin (1 μg/mL) and T3 (1 nM) for 3 days. […]
To measure intracellular CAMP levels in the differentiated C3H10T1/2 adipocytes treated with LPC P-18:0 (1 μM), LPE P-18:0 (1 μM) or isoproterenol (10 μM), The Direct CAMP ELISA Kit (Enzo) was used according to the manufacturer's instructions. […] The absorbance of the plate was measured at 405 nm, and the calculated absorbance was converted into pmol/ml of CAMP using AssayFit Pro (v1.31), and normalized to protein concentration measured with the Pierce BCA Protein Assay Kit (Thermo Fisher Scientific).

C3H10T1/2 adipocytes [2] = experiment: Immunoblot analysis of C3H10T1/2 adipocytes (PKA signaling, mitochondrial enzymes); type: cell-based; settings: for levels of phosphorylated HSL, CREB and PKA substrates / mitochondrial enzymes, including MCAD, ATP5A, UQCRC2, SDHB, NDUFB8, and COXIV: 1 μM; for levels of phosphorylated HSL, CREB and PKA substrates: 24 or 48 hours, vs vehicle, FIG. 1A; for mitochondrial enzymes, including MCAD, ATP5A, UQCRC2, SDHB, NDUFB8, and COXIV: long-term treatment (48 hours), FIG. 1B
Method: (§1) C3H10T1/2 cells were purchased from the American Type Culture Collection (ATCC), and in vitro adipocyte experiments were performed using these cells, which were cultured in DMEM (Welgene) supplemented with 10% FBS (Gibco) and 1% P/S at 37° C. in a humidified atmosphere of 5% CO2. To prepare fully differentiated C3H10T1/2 adipocytes, confluent C3H10T1/2 cells were exposed to BMP4 (R&D system, 20 ng/ml) for 2 days, and induced in a differentiation medium containing IBMX (isobutylmethylxanthine, Cayman, 0.5 mM), dexamethasone (Cayman, 1 μM), insulin (Sigma, 10 μg/mL), indomethacin (Cayman, 0.125 mM), and triiodothyronine (T3, Cayman, 1 nM) for 3 days, then exposed to a maintenance medium containing insulin (1 μg/mL) and T3 (1 nM) for 3 days. To evaluate in vitro effects of lysoplasmalogen, the fully differentiated C3H10T1/2 cells were treated with vehicle control, LPE P-18:0 (1 μM) or LPC P-18:0 (1 μM), LPC P-16:0. (10 μM) or isoproterenol (10 μM) for an indicated time.
(§2) BAT, iWAT and gWAT of mice fed a HFD and administered vehicle control or LPE P-18:0 intraperitoneally were homogenized using the tacoPrep Bead Beater homogenization system in a PROPREP protein extraction solution (iNtRON Biotechnology) containing SIGMAFAST Protease Inhibitor Cocktail (Sigma) and PhoSTOP phosphatase inhibitor (Roche). C3H10T1/2 adipocytes treated with vehicle control, LPE P-18:0 (1 μM) or LPC P-18:0 (1 μM), LPC P-16:0 (10 µM) or isoproterenol (10 μM) were lysed in RIPA Lysis and Extraction Buffer (Thermo Fisher Scientific) containing SIGMAFAST protease inhibitor cocktail (Sigma) and PhoSTOP phosphatase inhibitor (Roche). The extracted protein concentration was quantified by BCA analysis and measured by spectrophotometry at 562 nm (MultiSkan GO, Thermo Fisher Scientific). Proteins were denatured in an SDS sample buffer at 95° C. for 5 min, separated in SDS-PAGE gel, and transferred to a PVDF membrane (Bio-Rad). The membrane was blocked with BSA in 5% non-fat dry milk or TBST (Tris-buffered saline containing 0.1% Tween 20) and incubated overnight along with the primary antibody at 4° C., then cultured with horseradish peroxidase (HRP)-conjugated secondary antibody for 1 hour at room temperature. The primary antibody used for Western blot analysis are listed in Reagents or Resources. Protein expression was detected by a Fusion Solo chemiluminescence imaging system (Vilber Lourmat) and analyzed with EvolutionCapt software (version 17.03). Immunoblots were quantified with National Institutes of Health ImageJ software (version 1.52a).

C3H10T1/2 adipocytes [3] = experiment: Oxygen consumption rate (Seahorse XF, Cell Mito Stress Test); type: cell-based; settings: 1 μM; FIGS. 2B and 2C
Method: as §1
Oxygen consumption rates (OCRs) were measured with a Seahorse XF Analyzer (Agilent). The differentiated C3H10T1/2 adipocytes […] treated with LPC P-18:0 (1 μM), LPE P-18:0 or vehicle were washed, and maintained in an assay medium (XF DMEM basal medium, pH 7.4 (Agilent)) supplemented with D-(+)-glucose (25 mM) and L-glutamine (4 mM). The XFp Cell Mito Stress Test Kit (Agilent) was used at concentrations of 2.5 μM oligomycin, 0.5 μM carbonyl cyanide-4-(trifluoromethoxy) phenylhydrazone (FCCP) and 0.5 µM rotenone/antimycin A. Basal and maximal OCRs were calculated by subtracting non-mitochondrial respiration. The ATP production rate was calculated by subtracting the OCR induced by oligomycin A from the basal OCR. Spare respiratory capacity was calculated by subtracting baseline OCR from the maximal OCR. The OCR was normalized to protein concentration. Data were analyzed using Agilent Wave software (version 2.6.0.31).

HFD-fed mice [4] = experiment: Body weight and body composition in diet-induced obesity model; type: in vivo; settings: 200 μg/kg/day intraperitoneally for 2 weeks, FIG. 5
Method: (§3) For the diet-induced obesity model, 8-week-old mice were fed a HFD (60% fat, Research Diets, cat #D12492) for 8 weeks. Standardized rodent pellet feed (NCD, Purina, cat #38057) was used as the control feed. Energy expenditure (EE) was estimated by an indirect calorimeter (PhenoMaster, TSE Systems, Germany). Body compositions were measured by nuclear magnetic resonance (NMR) scanning EchoMRI-700 (Echo Medical Systems). To investigate effects of treatment with LPE P-18:0, the mice were fed a HFD for 8 weeks and injected intraperitoneally with LPE P-18:0 (Avanti Polar Lipids, 200 μg/kg/day, cat #852471P) or vehicle for 2 weeks.

[5] = system: adipose tissues of HFD-fed mice; experiment: Immunoblot analysis of BAT, iWAT and gWAT of HFD-fed mice; type: in vivo; settings: 200 μg/kg/day intraperitoneally for 2 weeks, FIGS. 3A, 3B
Method: as §2, with “Proteins were denatured in an SDS sample buffer at 95° C. for 5 min, separated in SDS-PAGE gel, and transferred to a PVDF membrane (Bio-Rad). The membrane was blocked with BSA in 5% non-fat dry milk or TBST (Tris-buffered saline containing 0.1% Tween 20) and incubated overnight along with the primary antibody at 4° C., then cultured with horseradish peroxidase (HRP)-conjugated secondary antibody for 1 hour at room temperature. The primary antibody used for Western blot analysis are listed in Reagents or Resources.” left out
For the diet-induced obesity model, 8-week-old mice were fed a HFD (60% fat, Research Diets, cat #D12492) for 8 weeks. […] Body compositions were measured by nuclear magnetic resonance (NMR) scanning EchoMRI-700 (Echo Medical Systems). […]

HFD-fed mice [6] = experiment: Glucose tolerance test in HFD-fed mice; type: in vivo; settings: 200 μg/kg/day intraperitoneally for 2 weeks, FIG. 4
Method: as §3

HFD-fed mice [7] = experiment: Intraperitoneal insulin tolerance test (ITT); type: in vivo; settings: 200 μg/kg/day intraperitoneally for 2 weeks, insulin 0.75 units/kg i.p., FIG. 5E
Method: as §3
For the insulin tolerance test, the mice were fasted for 6 hours before the test, was injected intraperitoneally with insulin (Sigma, 0.75 units/kg body weight, cat #91077C-1G), and blood glucose was measured at a designated time interval.

HFD-fed mice [8] = experiment: Indirect calorimetry analysis in HFD-fed mice; type: in vivo; settings: 200 μg/kg/day intraperitoneally for 2 weeks
Method: as §3

Row | SMILES | intracellular cAMP levels (C3H10T1/2 adipocytes [1]) | levels of phosphorylated HSL, CREB and PKA substrates (C3H10T1/2 adipocytes [2]) | mitochondrial enzymes, including MCAD, ATP5A, UQCRC2, SDHB, NDUFB8, and COXIV (C3H10T1/2 adipocytes [2]) | ATP production rate (C3H10T1/2 adipocytes [3]) | maximum respiration rate (C3H10T1/2 adipocytes [3]) | spare respiratory capacity (C3H10T1/2 adipocytes [3]) | body fat mass (HFD-fed mice [4]) | body weight (HFD-fed mice [4]) | PKA signaling and mitochondrial activity in the adipose tissues [5] | glucose tolerance (HFD-fed mice [6]) | insulin tolerance (HFD-fed mice [7]) | Food intake (HFD-fed mice [8]) | activity (HFD-fed mice [8]) | VO2 (HFD-fed mice [8]; FIGS. 5C, 5D) | energy expenditure (HFD-fed mice [8]; FIGS. 5C, 5D) | levels of phosphorylated HSL and CREB (C3H10T1/2 adipocytes [2]; 10 μM, 4 hours, vs vehicle (4 mg/mL fatty acid-free BSA), FIG. 6)
1 | CCCCCCCCCCCCCCCC/C=C\OC[C@@H](O)COP(=O)([O-])OCC[N+](C)(C)C [LPC P-18:0] | increase | significant increase | significant upregulation | increase | increase | increase | – | – | – | – | – | – | – | – | – | –
2 | CCCCCCCCCCCCCCCC/C=C\OC[C@@H](O)COP(=O)(O)OCCN [LPE P-18:0] | increase | significant increase | significant upregulation | increase | increase | increase | decreased | decreased | upregulates | improves | decreased | decreased | increased | increased | increased | –
3 | CCCCCCCCCCCCCC/C=C\OC[C@@H](O)COP(=O)([O-])OCC[N+](C)(C)C [LPC P-16:0] | – | – | – | – | – | – | – | – | – | – | – | – | – | – | – | significant increase
